Structures can show the parent of a compound that is named as a salt. Where two headings read alike, the source gives them in different places.
System: amyloid β production in transfected H4 (human neuroglioma) cells stably expressing APP constructs
Assay: In vitro cell-based assay of inhibitors of amyloid β production (ELISA)
Details: transfected H4 cells stably expressing APP, amyloid β in medium by ELISA, read-out: ACTIVITY (IC50, inhibition of amyloid β production)
Summary of the method: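 Test agents are screened at 10-100 μM for about 16 hours on cells stably expressing wild-type or variant APP. Secreted Aβ is measured by ELISA and compared with control-treated cells.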

[1] = Homo sapiens, 16 h, approx. 16 h incubation
[2] = Homo sapiens, 16 h, approximately 16 hours incubation
[3] = approximately 16 hours incubation

## CCCCC(=O)N(CC)CC(C)Oc1ccccc1C(C)N(c1cc(F)ccc1F)S(=O)(=O)c1ccc(Cl)cc1 (stereo not shown) [Example 777, N-{2-[2-(1-{[(4-chlorophenyl)sulfonyl]-2,5-difluoroanilino}ethyl)phenoxy]propyl}-N-ethylpentamide]
approx. 16 h incubation
  IC50: 100 to 500 nM

## O=C(C1CC1c1ccccc1)N1CCCCC1CCOc1ccccc1CN(c1cc(F)ccc1F)S(=O)(=O)c1ccc(Cl)cc1 (stereo not shown) [Example 780, 4-chloro-N-(2,5-difluorophenyl)-N-[2-(2-{1-[(2-phenylcyclopropyl)carbonyl]-2-piperidinyl}ethoxy)benzyl]benzenesulfonamide]
[1]
  IC50: 100 to 500 nM

## CCCC(C)N(Cc1ccccc1OCCCN1CCCCC1)S(=O)(=O)c1ccc(Cl)cc1 (stereo not shown) [Example 781, 4-chloro-N-(1-methylbutyl)-N-{2-[3-(1-piperidinyl)propoxy]benzyl}benzenesulfonamide hydrochloride]
[1]
  IC50: 100 to 500 nM

## CCCC(C)N(Cc1ccccc1OCCCN1CCCCC1)S(=O)(=O)c1ccc(Cl)cc1 (stereo not shown) [Example 782, 4-chloro-N-(1-methylbutyl)-N-{2-[3-(1-piperidinyl)propoxy]benzyl}benzenesulfonamide hydrochloride]
approx. 16 h incubation
  IC50: 100 to 500 nM

## O=C(c1ccccc1F)N1CCCCC1CCOc1ccccc1CN(c1cc(F)ccc1F)S(=O)(=O)c1ccc(Cl)cc1 (stereo not shown) [Example 787]
approx. 16 h incubation
  IC50: 100 to 500 nM

## CC(c1ccccc1OCCCN(C)S(=O)(=O)c1cccc(C(F)(F)F)c1)N(c1cc(F)ccc1F)S(=O)(=O)c1ccc(Cl)cc1 (stereo not shown) [Example 788, N-{3-[2-(1-{[(4-chlorophenyl)sulfonyl]-2,5-difluoroanilino}ethyl)phenoxy]propyl}-N-methyl-3-(trifluoromethyl)benzenesulfonamide]
approx. 16 h incubation
  IC50: 100 to 500 nM

## CC(C)CC(=O)N(C)CCCOc1ccccc1CN(c1cc(F)ccc1F)S(=O)(=O)c1ccc(Cl)cc1 [Example 791, N-{3-[2-({[(4-chlorophenyl)sulfonyl]-2,5-difluoroanilino}methyl)phenoxy]propyl}-N,3-dimethylbutamide]
approx. 16 h incubation
  IC50: 100 to 500 nM

## O=C(c1cccc2ccccc12)N1CCCCC1CCOc1ccccc1CN(c1cc(F)ccc1F)S(=O)(=O)c1ccc(Cl)cc1 (stereo not shown) [Example 792, 4-chloro-N-(2,5-difluorophenyl)-N-(2-{2-[1-(1-naphthoyl)-2-piperidinyl]ethoxy}benzyl)benzenesulfonamide]
[1]
  IC50: 100 to 500 nM

## CC(c1ccccc1OCCCN(C)S(=O)(=O)c1ccc(Cl)cc1)N(c1cc(F)ccc1F)S(=O)(=O)c1ccc(Cl)cc1 (stereo not shown) [Example 794, 4-chloro-N-[1-(2-{3-[[(4-chlorophenyl)sulfonyl](methyl)amino]propoxy}phenyl)ethyl]-N-(2,5-difluorophenyl)benzenesulfonamide]
[1]
  IC50: 100 to 500 nM

## CC(c1ccccc1OCCN(C)C(=O)C(F)(F)C(F)(F)C(F)(F)F)N(c1cc(F)ccc1F)S(=O)(=O)c1ccc(Cl)cc1 (stereo not shown) [Example 796, N-{2-[2-(1-{[(4-chlorophenyl)sulfonyl]-2,5-difluoroanilino}ethyl)phenoxy]ethyl}-2,2,3,3,4,4,4-heptafluoro-N-methylbutanamide]
approx. 16 h incubation
  IC50: 100 to 500 nM

## O=C(c1ccc(F)c(F)c1F)N1CCCCC1CCOc1ccccc1CN(c1cc(F)ccc1F)S(=O)(=O)c1ccc(Cl)cc1 (stereo not shown) [Example 797, 4-chloro-N-(2,5-difluorophenyl)-N-(2-{2-[1-(2,3,4-trifluorobenzoyl)-2-piperidinyl]ethoxy}benzyl)benzenesulfonamide]
[1]
  IC50: 100 to 500 nM

## CCNC(=O)N(C)CCOc1ccccc1C(C)N(c1cc(F)ccc1F)S(=O)(=O)c1ccc(Cl)cc1 (stereo not shown) [Example 801, 4-chloro-N-(2,5-difluorophenyl)-N-[1-(2-{3-[[(ethylamino)carbonyl](methyl)amino]ethoxy}phenyl)ethyl]benzenesulfonamide]
approx. 16 h incubation
  IC50: 100 to 500 nM

## COc1ccc([S+]([O-])CCCOc2ccccc2CN(c2cc(F)ccc2F)S(=O)(=O)c2ccc(Cl)cc2)cc1 (stereo not shown) [Example 803, 4-chloro-N-(2,5-difluorophenyl)-N-(2-{3-[(4-methoxyphenyl)sulfinyl]propoxy}benzyl)benzenesulfonamide]
[1]
  IC50: 100 to 500 nM

## O=S(=O)(c1ccc(Cl)cc1)N(Cc1ccccc1OCCCN1CCCCC1)c1cccc(Br)c1 [Example 804, N-(3-bromophenyl)-4-chloro-N-{2-[3-(1-piperidinyl)propoxy]benzyl}benzenesulfonamide hydrochloride]
[1]
  IC50: 100 to 500 nM

## O=S(=O)(c1ccccc1)N(Cc1ccccc1OCCCN1CCC(O)C1)c1ccccc1 (stereo not shown) [Example 809, N-{2-[3-(3-hydroxy-1-pyrrolidinyl)propoxy]benzyl}-N-phenylbenzenesulfonamide hydrochloride]
[2]
  IC50: 100 to 500 nM

## C[C@@H]1CCC[C@H](C)N1CCCOc1ccccc1CN(c1ccccc1)S(=O)(=O)c1ccc(Cl)cc1 [Example 812, 4-chloro-N-(2-{3-(2R, 6S)-2,6-dimethylpiperidinyl]propoxy}benzyl)-N-phenylbenzenesulfonamide hydrochloride]
[3]
  IC50: 100 to 500 nM

## O=S(=O)(c1ccc(Cl)cc1)N(Cc1ccccc1OCCCN1CCCCC1)c1cc(Cl)cc(Cl)c1 [Example 816, 4-chloro-N-(3,5-dichlorophenyl)-N-{2-[3-(1-piperidinyl)propoxy]benzyl}benzenesulfonamide hydrochloride]
[2]
  IC50: 100 to 500 nM

## O=S(=O)(CCCOc1ccccc1CN(c1cc(F)ccc1F)S(=O)(=O)c1ccc(Cl)cc1)c1ccccc1 [Example 818, 4-chloro-N-(2,5-difluorophenyl)-N-{2-[3-(phenylsulfonyl)propoxy]benzyl}benzenesulfonamide]
[2]
  IC50: 100 to 500 nM

## CC(c1ccccc1OCCCN(C)C(=O)Oc1ccccc1)N(c1cc(F)ccc1F)S(=O)(=O)c1ccc(Cl)cc1 (stereo not shown) [Example 826, phenyl 3-[2-(1-{[(4-chlorophenyl)sulfonyl]-2,5-difluoroanilino}ethyl)phenoxy]propyl(methyl)carbamate]
[3]
  IC50: 100 to 500 nM

## O=S(=O)(c1ccc(Cl)cc1)N(Cc1ccccc1OCCCN1CCCCC1)CC1CCC1 [Example 827, 4-chloro-N-(cyclobutylmethyl)-N-{2-[3-(1-piperidinyl)propoxy]benzyl}benzenesulfonamide hydrochloride]
[2]
  IC50: 100 to 500 nM

## O=C(/C=C\c1ccccc1)N1CCCCC1CCOc1ccccc1CN(c1cc(F)ccc1F)S(=O)(=O)c1ccc(Cl)cc1 (stereo not shown) [Example 832, 4-chloro-N-(2,5-difluorophenyl)-N-[2-(2-{1-[(2Z)-3-phenyl-2-propenoyl]-2-piperidinyl}ethoxy)benzyl]benzenesulfonamide]
[2]
  IC50: 100 to 500 nM

## O=S(=O)(c1ccc(Cl)cc1)N(Cc1ccccc1OCCCN1CCC(O)(C(F)(F)F)CC1)c1ccccc1 [Example 833, 4-chloro-N-(2-{3-[4-hydroxy-4-(trifluoromethyl)-1-piperidinyl]propoxy}benzyl)-N-phenylbenzenesulfonamide hydrochloride]
[2]
  IC50: 100 to 500 nM

## O=S(=O)(c1ccc(Cl)cc1)N(Cc1ccccc1OCCCN1CCCCC1)C1CCCC1 [Example 835, 4-chloro-N-cyclopentyl-N-{2-[3-(1-piperidinyl)propoxy]benzyl}benzenesulfonamide hydrochloride]
[2]
  IC50: 100 to 500 nM

## C[C@H](c1ccccc1OCCCN)N(c1cc(F)ccc1F)S(=O)(=O)c1cccc(Cl)c1 [Example 836, N-{(1R)-1-[2-(3-aminopropoxy)phenyl}ethyl}-3-chloro-N-(2,5-difluorophenyl)benzenesulfonamide]
[2]
  IC50: 100 to 500 nM

## CCCCC(CC)C(=O)N(C)CCCOc1ccccc1CN(c1cc(F)ccc1F)S(=O)(=O)c1ccc(Cl)cc1 (stereo not shown) [Example 837, N-{3-[2-({[(4-chlorophenyl)sulfonyl]-2,5-difluoroanilino}methyl)phenoxy]propyl}-2-ethyl N-methylhexanamide]
[3]
  IC50: 100 to 500 nM

## CC(c1ccccc1OCCCN(C)C(=O)c1ccc(-c2ccccc2)cc1)N(c1cc(F)ccc1F)S(=O)(=O)c1ccc(Cl)cc1 (stereo not shown) [Example 840, N-{3-[2-(1-{[(4-chlorophenyl)sulfonyl]-2,5-difluoroanilino}ethyl)phenoxy]propyl}-N-methyl[1,1′-biphenyl]-4-carboxamide]
[3]
  IC50: 100 to 500 nM

## CN(CCCOc1ccccc1CN(c1cc(F)ccc1F)S(=O)(=O)c1ccc(Cl)cc1)C(=O)/C=C\c1ccccc1 [Example 841, (2Z)-N-{3-[2-({[(4-chlorophenyl)sulfonyl]-2,5-difluoroanilino}methyl)phenoxy]propyl}-N methyl-3-phenyl-2-propenamide]
[3]
  IC50: 100 to 500 nM

## CC#CCCCN(Cc1ccccc1OCCCN1CCCCC1)S(=O)(=O)c1ccc(Cl)cc1 [Example 842, 4-chloro-N-(4-hexynyl)-N-{2-[3-(1-piperidinyl)propoxy]benzyl}benzenesulfonamide hydrochloride]
[2]
  IC50: 100 to 500 nM

## O=C(c1ccc(-c2ccccc2)cc1)N1CCCCC1CCOc1ccccc1CN(c1cc(F)ccc1F)S(=O)(=O)c1ccc(Cl)cc1 (stereo not shown) [Example 845, N-(2-{2-[1-([1,1′-biphenyl]-4-ylcarbonyl)-2-piperidinyl]ethoxy}benzyl)-4-chloro-N-(2,5-difluorophenyl)benzenesulfonamide]
[2]
  IC50: 100 to 500 nM

## O=S(=O)(c1ccc(Cl)cc1)N(Cc1ccccc1OCCCN1CCCCC1)CC1CCCC1 [Example 848, 4-chloro-N-(cyclopentylmethyl)-N-{2-[3-(1-piperidinyl)propoxy]benzyl}benzenesulfonamide hydrochloride]
[2]
  IC50: 100 to 500 nM

## CCN(CC)C(=O)N(C)CCCOc1ccccc1CN(c1cc(F)ccc1F)S(=O)(=O)c1ccc(Cl)cc1 [Example 849, 4-chloro-N-(2-{3-[[(diethylamino)carbonyl](methyl)amino]propoxy}benzyl)-N-(2,5-difluorophenyl)benzenesulfonamide]
[2]
  IC50: 100 to 500 nM

— patent US6967196B1, “Sulfonamide compounds and uses thereof” (Bristol-Myers Squibb Company, priority 1999, dated 2005)
